Columns and labels:
[1] = tested on: HBV genotype C; serum HBsAg; assay: Serum HBsAg levels in HBV-infected humanized FRG model mice; format: in vivo, FRG mice transplanted with human hepatocytes; details: mouse A-1; PBS (no RNAi agent); oral daily gavage 0.01 mg/kg Entecavir from day 1; Day 8
Description: ii) Serum Hepatitis B surface antigen (HBsAg) levels: Serum was collected and diluted 10 to 8000-fold in PBS containing 5% nonfat dry milk. Secondary HBsAg standards diluted in the nonfat milk solution were prepared from serum of ICR mice (Harlan Sprague Dawley) that had been transfected with 10 μg HBsAg-expressing plasmid pRc/CMV-HBs (Aldevron, Fargo, N. Dak.). HBsAg levels were determined with a GS HBsAg EIA 3.0 kit (Bio-Rad Laboratories, Inc., Redmond, Wash.) as described by the manufacturer. Recombinant HBsAg protein, ayw subtype, also diluted in nonfat milk in PBS, was used as a primary standard (Aldevron). […]
Serum was collected on day 8, day 15, day 22, day 29, day 36, and day 40 and serum Hepatitis B surface antigen (HBsAg) levels were determined pursuant to the procedure set forth in Example 2, above.

[2] = tested on: HBV genotype C; serum HBV DNA; assay: Serum HBV DNA levels in HBV-infected humanized FRG model mice; format: in vivo, FRG mice transplanted with human hepatocytes; details: for Serum HBV DNA levels normalized to the average of pre-treatment day −10 and day −3: PBS (no RNAi agent), oral daily gavage 0.01 mg/kg Entecavir from day 1
Description: iv) Serum HBV DNA levels: Equal volumes of serum from mice in a group or subgroup were pooled to a final volume of 100 μL. DNA was isolated from serum samples using the QIAamp MinElute Virus Spin Kit (Qiagen, Valencia, Calif.) following the manufacturer's instructions. Sterile 0.9% saline was added to each sample to a final volume of 200 μL. Serum samples were added to tubes containing buffer and protease. Carrier RNA was added to aid in the isolation of small amounts of DNA. […] After incubating 15 min at 56° C., nucleic acids were precipitated from the lysates with ethanol and the entire solution applied to a column. After washing, the samples were eluted into a volume of 50 μL Buffer AVE.
The number of copies of HBV genomes in DNA isolated from the pHBV mouse model serum was determined by qPCR. Plasmid pSEAP-HBV353-777, encoding a short segment of the HBV genome within the S gene (bases 353-777 of GenBank accession #V01460), was used to create a six log standard curve. Samples with recovery of DNA below 2 standard deviations from the average, based on detection of pHCR/UbC-SEAP were omitted. TaqMan chemistry-based primers and probes with fluor/ZEN/IBFQ are utilized.
qPCR assays were performed on a 7500 Fast or StepOne Plus Real-Time PCR system (Life Technologies). For evaluation of HBV DNA in serum, DNA was isolated from singlet or duplicate purification steps from pooled group serum samples. Quantitations of HBV DNA and recovery control plasmid were determined by qPCR reactions performed in triplicate. The probes to quantitate HBV and pHCR/UbC-SEAP were included in each reaction.
For this study, Male FRG® (genotype Fah −/−/Rag2−/−/Il2rg −/− triple knockout mice on a C57BL/6 background (Yecuris) were transplanted with human hepatocytes when they were 1-2 months old. The human hepatocytes were allowed to repopulate the liver for approximately 6 months with periodic NTBC treatment to discourage growth of mouse hepatocytes. At 9 months of age the mice were given an intravenous inoculation of 4×10^8 genomes/kg HBV genotype C, which infected the human hepatocytes. After 2-3 months, serum HBV DNA levels reached a plateau indicating the human hepatocytes were maximally infected (mouse hepatocytes cannot be infected by HBV). Mice were one year old at the start of treatment with HBV RNAi agents, thus nearing the end of their life span.
Pre-treatment serum samples were taken on day −10 and day −3. Beginning on day 1, each mouse was administered an oral daily gavage with 0.01 mg/kg Entecavir dissolved in water to inhibit HBV replication. Daily dosing of Entecavir continued until the day mice were euthanized. Entecavir administration was expected to reduce serum HBV DNA in chronically infected human patients, but not reduce HBsAg.
Each mouse was also given a subcutaneous administration of 100 μl per 20 grams body weight containing the amount of HBV RNAi agent(s) formulated in phosphate buffered saline, or an equal volume of phosphate buffered saline without an HBV RNAi agent, on day 1 and on day 29 (if still alive on day 29), pursuant to the schedule as set forth in Table 47, directly above. […] The injections were performed between the skin and muscle (i.e. subcutaneous injections) into the loose skin over the neck and shoulder area.
Additionally, serum HBV DNA levels were determined from serum samples collected on days −10, −3, 8, 15, 22, 29, 36, and 40, pursuant to the procedure set forth in Example 2, above.

## C=C1[C@H](CO)[C@@H](O)C[C@@H]1n1cnc2c(=O)[nH]c(N)nc21 [Entecavir]
[1]
  Average HBsAg levels normalized to pre-treatment (day −3): 0.830
[2]; Example 18, 0.01 mg/kg Entecavir oral daily gavage
  viral replication (serum HBV DNA): reduced viral replication in both the absence and presence of HBV RNAi agents
[2]; mouse A-1, Day 8
  Serum HBV DNA levels normalized to the average of pre-treatment day −10 and day −3: 0.072
[2]; mouse A-1, Day 15
  Serum HBV DNA levels normalized to the average of pre-treatment day −10 and day −3: 0.038
[2]; mouse A-1, Day 22
  Serum HBV DNA levels normalized to the average of pre-treatment day −10 and day −3: 0.015
[2]; mouse A-1, Day 29
  Serum HBV DNA levels normalized to the average of pre-treatment day −10 and day −3: 0.027
[2]; mouse A-1, Day 36
  Serum HBV DNA levels normalized to the average of pre-treatment day −10 and day −3: 0.060
[2]; mouse A-2, Day 8
  Serum HBV DNA levels normalized to the average of pre-treatment day −10 and day −3: 0.130
[2]; mouse A-2, Day 15
  Serum HBV DNA levels normalized to the average of pre-treatment day −10 and day −3: 0.075
